# How the values were obtained:
# PIM1 = PIM1 (Homo sapiens, UniProt P11309); experiment: Kinase selectivity panel; type: biochemical; details: [ATP] = 1 mM
# FAK = FAK (Homo sapiens, UniProt Q05397); experiment: Kinase selectivity panel; type: biochemical; details: [ATP] = 1 mM
# SGK2 = SGK2 (Homo sapiens, UniProt Q9HBY8); experiment: Kinase selectivity panel; type: biochemical; details: [ATP] = 1 mM
# PIM2 [1] = molecular target: T1, PIM2 (Homo sapiens, UniProt Q9P1W9); experiment: Kinase selectivity panel; type: biochemical; details: [ATP] = 1 mM
# SYK = SYK (Homo sapiens, UniProt P43405); experiment: Kinase selectivity panel; type: biochemical; details: [ATP] = 1 mM
# CLK3 = CLK3 (Homo sapiens, UniProt P49761); experiment: Kinase selectivity panel; type: biochemical; details: [ATP] = 1 mM
# BTK = BTK (Homo sapiens, UniProt Q06187); experiment: Kinase selectivity panel; type: biochemical; details: [ATP] = 1 mM
# AURKA = AURKA (Homo sapiens, UniProt O14965); experiment: Kinase selectivity panel; type: biochemical; details: [ATP] = 1 mM
# [2] = tested on: PIM2 expression in KG-1a, Pfeiffer and KMS-12-PE cells; experiment: Western blot of PIM2 expression in cell lines; type: cell-based; details: KG-1a (AML)
# [3] = Plasma concentrations of INCB053914 in tumor-bearing mice; type: in vivo, mouse; details: up to 16 hours post oral administration, MOLM-16 and KMS-12-BM tumor-bearing mice
# Experimental: Human MOLM-16 (AML) and KMS-12-BM (MM) xenografts were established in SCID mice. For the evaluation of intratumoral pBAD inhibition, tumor-bearing mice (three to eight mice/group) were treated with a single oral dose of INCB053914 at doses ranging from 0 (vehicle) to 100 mg/kg. In one representative experiment, mice were sacrificed 4 hours after a single dose, and tumors were collected to analyze the levels of pBAD relative to those of vehicle-administered controls. Plasma samples were collected for pharmacokinetic analysis.
# Concentrations of INCB053914 in plasma were analyzed using liquid chromatography tandem–mass spectrometry at 2, 4, 8, and 16 hours postdose (see Supporting Information, S3 File).
# Blood samples from each study were collected using EDTA and centrifuged to obtain plasma. The calibration curves were prepared in mouse plasma (BioreclamationIVT, Westbury, New York). Samples (50 µl) were placed in a 2-ml square well plate (Costar, Corning, New York). Acetonitrile/methanol 9/1 v/v (550 µl) containing an internal standard was added for precipitation of the protein. The 96-well plate was covered, vortexed for 5 minutes, and centrifuged for 10 minutes at 3,000 rpm. […] The samples were analyzed for INCB053914 by liquid chromatography tandem–mass spectrometry using gradient high-performance liquid chromatography and atmospheric pressure chemical ionization.
# [4] = tested on: human KG-1 AML xenografts; experiment: Tumor growth in KG-1 (AML) xenograft, combination with cytarabine; type: in vivo, mouse; details: KG-1 (AML) tumors
# Experimental: Female immune compromised (severe combined immunodeficiency [SCID]) mice (5–9 weeks of age; Charles River Laboratories, Wilmington, Massachusetts) were inoculated with MOLM-16, KG-1, or KMS-12-BM cells. A cell suspension in Dulbecco’s phosphate-buffered saline (DPBS) (1 × 10^8 cells/ml) was mixed 1:1 (v/v) with matrigel, and 200 μl was injected subcutaneously into the flank of each mouse. […] The treatment of tumor-bearing mice started 7 to 24 days after tumor inoculation for efficacy studies and approximately 14 to 27 days after tumor inoculation for pharmacodynamic studies.
# Synergistic effects of INCB053914 in combination with INCB050465, cytarabine, or itacitinib, were assessed based on the Bliss independence model [56, 57]. In this model, the expected additive effect, with the assumption that concentration dependent effects of 2 drugs (A and B) are independent, is given by the equation EIND = EA + EB – EA •EB, where 0 ≤ EIND ≤ 1; EA and EB are the magnitudes of effects of A and B alone at given concentrations.
# The interaction between effects of A and B can be described by the equation Combination Index = EIND/ EOBS, where EOBS is the observed combined effect of A + B expressed as a probability (0 ≤ EOBS ≤ 1). […]
# SRC = SRC (Homo sapiens, UniProt P12931); experiment: Kinase selectivity panel; type: biochemical; details: [ATP] = 1 mM
# GSK3B = GSK3B (Homo sapiens, UniProt P49841); experiment: Kinase selectivity panel; type: biochemical; details: [ATP] = 1 mM
# TRKA = TRKA (Homo sapiens, UniProt P04629); experiment: Kinase selectivity panel; type: biochemical; details: [ATP] = 1 mM
# [5] = tested on: PIM2 expression and 4E-BP1 phosphorylation in whole blood samples; experiment: Pharmacodynamic assessment of blood samples from patients with AML in the phase 1/2 trial; type: in vivo, human; details: patients with AML receiving INCB053914 100 mg twice a day; blood 0 to 6 hours post-dose
# INA-6 cells = experiment: STAT3(Y705) and PIM kinase substrate phosphorylation in INA-6 cells in culture; type: cell-based; details: INA-6 cells treated for 24 hours in culture
# Experimental: Fig S1. Effects of INCB053914 on STAT3(Y705) and PIM kinase substrate phosphorylation in INA-6 cells treated for 24 hours in culture.
# ROCK1 = ROCK1 (Homo sapiens, UniProt Q13464); experiment: Kinase selectivity panel; type: biochemical; details: [ATP] = 1 mM
# PIM2 [6] = molecular target: T1, PIM2; experiment: PIM2 time-resolved fluorescence resonance energy transfer assay; type: biochemical; details: 1 mM ATP; read-out: Mean (SD) IC50
# Experimental: The activity of INCB053914 against the PIM1 and PIM3 kinases was measured using AlphaScreen® assays (PerkinElmer, Inc., Shelton, Connecticut), and against PIM2 kinase using a time-resolved fluorescence resonance energy transfer assay (see Supporting Information, S1 File)
# Time-resolved fluorescence resonance energy transfer assay. Reactions (20 μl) were carried out in white 384-well polystyrene plates dotted with 0.8 μl of the compound in dimethylsulfoxide in the assay buffer (50 mM Tris, pH 7.5, 0.01% Tween-20, 5 mM MgCl2, 0.01% BSA, 5 mM dithiothreitol) containing 0.05 μM fluorescein-labeled CREBtide peptide substrate (Invitrogen), 1 mM ATP, and 1 nM PIM2 (Invitrogen). After 2 hours at 25°C, reactions were stopped with 10 μl RT-FRET dilution buffer (Invitrogen) supplemented with 30 mM EDTA and 1.5 nM LanthaScreen Tb-CREB pSer133 antibody (Invitrogen). After a 30-minute incubation at room temperature, plates were read on a PHERAstar FS plate reader (BMG Labtech).
# KG-1 = experiment: Cell proliferation assay ([3H]-thymidine); type: cell-based, human; details: KG-1 (AML)
# Experimental: (§1) The antiproliferative effects of INCB053914 on hematologic tumor cells were investigated using assays described in the Supporting Information (S2 File).
# (§2) Cell proliferation assays. […] After 3 to 4 days, [^3H]-thymidine (1 μCi/well) (PerkinElmer) in PBS (10 μl) was added to the cell culture for an additional 12 hours. The incorporated radioactivity was separated by filtration with water through GF/B filters (Packard Bioscience, Meriden, Connecticut) and measured by liquid scintillation counting with a TopCount (Packard Bioscience).
# MOLM-16 = experiment: Cell proliferation assay ([3H]-thymidine); type: cell-based, human; details: MOLM-16 (AML)
# Experimental: as §1, §2
# SGK3 = SGK3 (Homo sapiens, UniProt Q96BR1); experiment: Kinase selectivity panel; type: biochemical; details: [ATP] = 1 mM
# LRRK2 = LRRK2 (Homo sapiens, UniProt Q5S007); experiment: Kinase selectivity panel; type: biochemical; details: [ATP] = 1 mM
# T1 sequence (Q9P1W9 whole entry): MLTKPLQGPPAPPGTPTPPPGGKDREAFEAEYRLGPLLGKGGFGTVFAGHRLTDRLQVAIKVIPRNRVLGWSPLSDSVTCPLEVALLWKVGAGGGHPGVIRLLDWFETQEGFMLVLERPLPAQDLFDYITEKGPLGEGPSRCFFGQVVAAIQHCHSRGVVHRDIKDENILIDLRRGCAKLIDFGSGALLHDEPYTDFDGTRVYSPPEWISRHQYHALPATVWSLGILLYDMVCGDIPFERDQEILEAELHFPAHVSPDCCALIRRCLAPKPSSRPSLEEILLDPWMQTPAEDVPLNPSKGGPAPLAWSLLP
# Chain of SGK3 (Q96BR1 whole entry, species assumed): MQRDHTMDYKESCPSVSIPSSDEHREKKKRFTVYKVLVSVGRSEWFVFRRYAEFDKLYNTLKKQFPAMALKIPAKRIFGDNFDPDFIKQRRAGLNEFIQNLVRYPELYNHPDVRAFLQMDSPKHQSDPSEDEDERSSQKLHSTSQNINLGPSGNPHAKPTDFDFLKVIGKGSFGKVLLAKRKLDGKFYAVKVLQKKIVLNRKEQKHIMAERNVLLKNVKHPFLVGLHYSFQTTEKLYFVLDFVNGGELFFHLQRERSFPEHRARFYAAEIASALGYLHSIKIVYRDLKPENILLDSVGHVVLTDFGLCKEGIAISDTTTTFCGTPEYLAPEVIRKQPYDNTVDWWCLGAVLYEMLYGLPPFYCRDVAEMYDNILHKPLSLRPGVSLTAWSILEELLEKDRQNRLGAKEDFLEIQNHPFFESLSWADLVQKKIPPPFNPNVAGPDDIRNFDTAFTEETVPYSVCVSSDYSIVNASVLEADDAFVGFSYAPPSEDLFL
# Chain of TRKA (P04629 33-796, species assumed): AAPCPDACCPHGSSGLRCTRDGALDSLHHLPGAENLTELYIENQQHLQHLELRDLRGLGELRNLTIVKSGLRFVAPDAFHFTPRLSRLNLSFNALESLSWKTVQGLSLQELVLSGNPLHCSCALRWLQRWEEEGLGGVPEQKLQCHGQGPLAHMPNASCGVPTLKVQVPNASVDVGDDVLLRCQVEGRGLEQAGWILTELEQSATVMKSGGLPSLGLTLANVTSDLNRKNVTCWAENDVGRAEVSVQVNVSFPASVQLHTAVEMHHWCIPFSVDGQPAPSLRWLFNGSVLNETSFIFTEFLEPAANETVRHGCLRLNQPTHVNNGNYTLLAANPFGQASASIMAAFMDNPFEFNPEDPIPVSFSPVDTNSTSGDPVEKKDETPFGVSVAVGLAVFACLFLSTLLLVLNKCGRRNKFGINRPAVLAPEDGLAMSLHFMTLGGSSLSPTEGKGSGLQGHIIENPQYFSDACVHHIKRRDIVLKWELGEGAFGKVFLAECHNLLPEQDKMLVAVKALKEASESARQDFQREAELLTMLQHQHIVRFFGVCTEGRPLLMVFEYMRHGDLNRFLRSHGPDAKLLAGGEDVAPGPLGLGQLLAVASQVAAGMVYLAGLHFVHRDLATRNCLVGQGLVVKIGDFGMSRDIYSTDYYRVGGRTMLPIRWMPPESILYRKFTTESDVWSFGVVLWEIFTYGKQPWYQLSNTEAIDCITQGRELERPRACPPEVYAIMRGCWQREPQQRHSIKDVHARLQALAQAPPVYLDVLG
# Chain of FAK (Q05397 whole entry): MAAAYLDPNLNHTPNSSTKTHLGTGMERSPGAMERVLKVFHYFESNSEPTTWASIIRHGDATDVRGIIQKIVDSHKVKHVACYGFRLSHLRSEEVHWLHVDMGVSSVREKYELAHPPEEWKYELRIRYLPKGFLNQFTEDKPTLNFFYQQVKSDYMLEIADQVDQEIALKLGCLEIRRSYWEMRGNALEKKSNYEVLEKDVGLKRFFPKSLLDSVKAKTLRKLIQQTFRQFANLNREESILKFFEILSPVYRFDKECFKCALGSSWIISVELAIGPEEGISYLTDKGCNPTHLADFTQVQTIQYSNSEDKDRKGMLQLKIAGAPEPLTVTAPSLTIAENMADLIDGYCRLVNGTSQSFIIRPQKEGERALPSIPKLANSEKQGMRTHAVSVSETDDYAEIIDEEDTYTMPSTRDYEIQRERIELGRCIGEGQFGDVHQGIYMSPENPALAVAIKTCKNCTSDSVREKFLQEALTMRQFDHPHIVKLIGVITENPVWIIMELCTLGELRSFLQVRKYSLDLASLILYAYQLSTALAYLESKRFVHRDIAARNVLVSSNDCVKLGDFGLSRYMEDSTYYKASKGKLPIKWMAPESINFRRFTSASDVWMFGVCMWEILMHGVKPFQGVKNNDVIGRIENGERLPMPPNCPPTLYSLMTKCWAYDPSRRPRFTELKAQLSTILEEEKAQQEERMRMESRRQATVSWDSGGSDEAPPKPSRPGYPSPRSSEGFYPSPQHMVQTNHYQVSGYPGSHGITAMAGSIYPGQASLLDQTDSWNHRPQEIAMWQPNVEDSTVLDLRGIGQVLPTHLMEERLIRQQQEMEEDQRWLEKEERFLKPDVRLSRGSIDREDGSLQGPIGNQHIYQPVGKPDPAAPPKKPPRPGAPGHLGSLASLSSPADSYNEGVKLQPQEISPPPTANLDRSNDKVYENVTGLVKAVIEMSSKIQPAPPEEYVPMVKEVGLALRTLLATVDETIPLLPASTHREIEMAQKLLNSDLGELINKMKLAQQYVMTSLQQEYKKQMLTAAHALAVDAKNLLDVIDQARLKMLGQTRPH
# Chain of PIM1 (P11309 whole entry): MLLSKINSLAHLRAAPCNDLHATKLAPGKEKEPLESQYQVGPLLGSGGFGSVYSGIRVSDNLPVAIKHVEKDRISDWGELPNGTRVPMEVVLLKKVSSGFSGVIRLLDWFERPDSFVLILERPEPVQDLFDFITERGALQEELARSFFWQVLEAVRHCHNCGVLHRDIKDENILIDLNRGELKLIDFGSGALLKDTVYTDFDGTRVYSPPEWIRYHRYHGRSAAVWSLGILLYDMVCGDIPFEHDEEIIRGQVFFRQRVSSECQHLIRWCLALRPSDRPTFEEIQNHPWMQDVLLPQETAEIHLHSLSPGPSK
# Chain of AURKA (O14965 whole entry): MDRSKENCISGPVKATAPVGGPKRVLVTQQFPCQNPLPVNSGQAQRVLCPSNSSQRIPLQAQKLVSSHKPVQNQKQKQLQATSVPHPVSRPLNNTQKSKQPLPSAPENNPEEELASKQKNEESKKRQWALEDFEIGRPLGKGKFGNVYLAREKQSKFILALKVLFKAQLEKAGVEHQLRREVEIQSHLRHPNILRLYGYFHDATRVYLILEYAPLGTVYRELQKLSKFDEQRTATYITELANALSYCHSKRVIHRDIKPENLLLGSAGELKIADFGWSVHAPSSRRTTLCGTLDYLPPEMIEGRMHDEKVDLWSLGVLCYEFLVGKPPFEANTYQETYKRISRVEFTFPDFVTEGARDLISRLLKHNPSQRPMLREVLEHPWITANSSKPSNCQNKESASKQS
# Chain of ROCK1 (Q13464 whole entry): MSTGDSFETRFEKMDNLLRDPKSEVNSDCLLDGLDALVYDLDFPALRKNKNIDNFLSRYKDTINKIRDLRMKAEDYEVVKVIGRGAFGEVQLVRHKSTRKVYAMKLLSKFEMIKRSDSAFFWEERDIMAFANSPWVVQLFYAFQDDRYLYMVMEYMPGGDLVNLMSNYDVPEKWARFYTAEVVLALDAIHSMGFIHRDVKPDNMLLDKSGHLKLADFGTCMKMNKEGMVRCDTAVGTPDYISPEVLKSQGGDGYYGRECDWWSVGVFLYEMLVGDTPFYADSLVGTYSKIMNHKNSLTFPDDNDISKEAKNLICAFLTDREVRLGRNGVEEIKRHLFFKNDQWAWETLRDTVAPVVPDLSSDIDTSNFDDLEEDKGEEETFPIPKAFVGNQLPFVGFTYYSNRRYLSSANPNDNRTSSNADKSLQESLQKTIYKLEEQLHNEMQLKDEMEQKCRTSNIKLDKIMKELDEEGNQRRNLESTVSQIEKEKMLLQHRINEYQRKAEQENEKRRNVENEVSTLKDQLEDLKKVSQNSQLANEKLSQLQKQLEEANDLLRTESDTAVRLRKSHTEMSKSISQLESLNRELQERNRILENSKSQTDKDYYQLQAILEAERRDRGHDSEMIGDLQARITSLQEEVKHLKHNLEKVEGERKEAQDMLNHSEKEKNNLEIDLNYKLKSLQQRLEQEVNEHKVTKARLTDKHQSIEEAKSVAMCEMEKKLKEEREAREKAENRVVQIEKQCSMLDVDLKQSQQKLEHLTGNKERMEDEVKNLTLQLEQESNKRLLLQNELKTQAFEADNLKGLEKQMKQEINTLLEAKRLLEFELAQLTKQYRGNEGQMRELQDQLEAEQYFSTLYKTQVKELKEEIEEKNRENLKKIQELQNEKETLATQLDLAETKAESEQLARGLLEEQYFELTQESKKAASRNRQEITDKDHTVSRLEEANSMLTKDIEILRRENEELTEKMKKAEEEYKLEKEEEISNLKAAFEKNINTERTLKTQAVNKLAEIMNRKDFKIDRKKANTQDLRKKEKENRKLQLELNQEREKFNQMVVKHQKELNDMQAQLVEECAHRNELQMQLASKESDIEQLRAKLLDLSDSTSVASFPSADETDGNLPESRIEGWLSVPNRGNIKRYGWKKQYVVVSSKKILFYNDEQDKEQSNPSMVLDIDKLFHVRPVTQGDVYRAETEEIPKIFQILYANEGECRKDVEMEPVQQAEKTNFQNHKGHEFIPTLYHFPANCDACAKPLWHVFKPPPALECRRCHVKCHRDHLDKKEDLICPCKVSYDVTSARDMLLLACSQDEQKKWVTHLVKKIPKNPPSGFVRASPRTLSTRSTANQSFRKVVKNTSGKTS
smiles,measurement,setting,value
"C[C@H]1CN(c2c(NC(=O)c3ccc(F)c(-c4c(F)cccc4F)n3)cnc3c2CC[C@H]3O)C[C@@H](N)[C@@H]1O.O=P(O)(O)O [INCB053914, N-((R)-4-((3R,4R,5S)-3-amino-4-hydroxy-5-methylpiperidin-1-yl)-7-hydroxy-6,7-dihydro-5H-cyclopenta[b]pyridin-3-yl)-6-(2,6-difluorophenyl)-5-fluoropicolinamide phosphate]",IC50,PIM1,< 0.012 µM
same,IC50,FAK,> 20 µM
same,IC50,SGK2,> 20 µM
same,IC50,PIM2 [1],0.015 µM
same,IC50,SYK,> 20 µM
same,IC50,CLK3,> 20 µM
same,IC50,BTK,> 20 µM
same,IC50,AURKA,> 20 µM
same,PIM2 expression,[2],increased PIM2 expression
same,plasma concentrations versus dose,[3],suggested dose proportionality
same,"tumor growth, single agent",[4],inhibited
same,IC50,SRC,> 20 µM
same,IC50,GSK3B,> 20 µM
same,IC50,TRKA,> 20 µM
same,4E-BP1 phosphorylation,[5],a decrease in 4E-BP1 phosphorylation
same,PIM2 expression levels,[5],an increase in PIM2 expression levels
same,pSTAT3(Y705) levels,INA-6 cells,negligible effects
same,IC50,ROCK1,> 20 µM
same,IC50,PIM2 [6],0.03 µM
same,GI50,"KG-1; Homo sapiens, read-out: Mean (± SD) GI50",0.0179 ± 0.0071 µM
same,Mean (SD) maximum inhibition,KG-1,88.3 ± 3.8%
same,GI50,"MOLM-16; Homo sapiens, MOLM16, read-out: Mean (± SD) GI50",0.0033 µM
same,Mean (SD) maximum inhibition,MOLM-16,99.3 ± 0.3%
same,IC50,SGK3,> 20 µM
same,IC50,LRRK2,> 20 µM

# Reference: article PMC6013247, “Preclinical characterization of INCB053914, a novel pan-PIM kinase inhibitor, alone and in combination with anticancer agents, in models of hematologic malignancies” (PLoS ONE, 2018)
